Where “and” joins values, the source holds several entries; their conditions need not be identical. Equal values may be shown once. Read-outs that look alike come from different tables or passages of the source. [ ]: non-standard residue; d: D form. Nle = CCCC[C@H](N)C(=O)O
What was measured:
[1] = system: SARS-CoV-2 (USA-WA1/2020); assay: microbe, parasite or virus in culture; format: cell-based
[2] = system: Vero cells
[3] = in vitro; conditions: African green monkey; for viability at 0.625 µM / viability at 1.25 µM / viability at 5 µM / viability at 20 µM: Cell viability (%)
[4] = in vitro; conditions: human, U-87 MG cell viability (%)
[5] = in vitro; conditions: human, Huh7 cell viability (%)

Row | Molecule | SARS-CoV-2 infection (%) ([1]; 0.625 μM) | SARS-CoV-2 infection (%) ([1]; 1.25 μM) | SARS-CoV-2 infection (%) ([1]; 5 μM) | SARS-CoV-2 infection (%) ([1]; 20 μM) | Cell viability (%) ([2]; 0.625 μM) | Cell viability (%) ([2]; 1.25 μM) | Cell viability (%) ([2]; 5 μM) | Cell viability (%) ([2]; 20 μM) | viability at 0.625 µM [3] [%] | viability at 1.25 µM [3] [%] | viability at 5 µM [3] [%] | viability at 20 µM [3] [%] | other results
1 | CC(C)(C)NCC(O)c1ccc(O)c(CO)c1 (stereo not shown) [Salbuta-mol] | 85.71% and 108.79% and 115.38% | 128.57% and 98.90% | 92.31% and 118.68% and 115.38% | 105.49% and 89.01% | – | – | – | – | – | – | – | – | –
2 | O=C(CCCN1CCC2(CC1)C(=O)NCN2c1ccccc1)c1ccc(F)cc1 [Spipe-rone] | 124.72% and 114.61% and 131.46% | 107.87% and 117.98% and 101.12% | 15.17% and 17.19% and 12.81% | 0.47% and 0.20% and 0.30% | 94.16% and 92.89% | 101.11% | 96.86% and 95.76% | 101.04% | 91.9 | 99.9 | 94.3 | 97.4 | viability at 0.37 µM [4]: 99.2%; viability at 3.33 µM [4]: 101%; viability at 10 µM [4]: 97%; viability at […] [4]: 99.5% and 99.9%
3 | O=C(CCCN1CCC2(CC1)C(=O)NCN2c1ccccc1)c1ccc(F)cc1 [Spiperone] | – | – | – | – | – | – | – | – | – | – | – | – | CC50 [3]: > 20 µM; viability at 0.37 µM [5]: 99.5%; viability at 3.33 µM [5]: 79.2%; viability at 10 µM [5]: 75.7%; viability at […] [5]: 97% and 99.9%
4 | COc1ccc2cc1Oc1ccc(cc1)C[C@H]1c3cc(c(OC)cc3CCN1C)Oc1c(OC)c(OC)cc3c1[C@H](C2)N(C)CC3 [Tetran-drine] | 107.87% and 117.98% and 101.12% | 53.93% and 104.49% and 87.64% | 0.61% and 0.84% and 0.88% | 0.00337% | 99.78% | 105.40% and 105.65% | 86.02% and 86.44% | 48.98% and 79.18% and 56.10% | 94.4 | 101 | 83.6 | – | viability at 0.37 µM [4]: 101%; viability at 3.33 µM [4]: 101%; viability at 10 µM [4]: 98.9%; viability at […] [4]: 105% and 97.8%
5 | CC(C)(C)c1cc(C=C(C#N)C#N)cc(C(C)(C)C)c1O [Tyrphos-tin A9] | 101.12% and 121.35% and 124.72% | 131.46% and 128.09% and 114.61% | 107.87% and 117.98% and 101.12% | 9.10% and 6.07% and 8.43% | 112.22% and 113.82% | 118.35% and 120.78% | 96.34% | 97.68% and 97.70% | 107 | 111 | 96.3 | 91.5 | –
6 | CC(C)(C)c1cc(/C=C(\C#N)C(N)=S)cc(C(C)(C)C)c1O [Tyrphos-tin AG 879] | 47.19% and 30.34% and 33.71% | 7.75% and 5.73% and 5.06% | 0.40% and 0.44% and 0.27% | 0.00337% | 83.52% and 84.00% | 88.30% and 88.47% | 78.46% and 79.21% | 71.26% and 69.85% | 85.5 | 87.2 | 78.7 | 71 | viability at 0.25 µM [4]: 96.7%; viability at 0.74 µM [4]: 85%; viability at 2.22 µM [4]: 85.2%; viability at 6.67 µM [4]: 78.3%; viability at 20 µM [4]: 70.1%
7 | Ac-Leu-Leu-[Nle]-aldehyde | – | – | – | 2.73% and 1.37% and 0.00% | – | – | – | – | – | – | – | – | CC50 [2]: > 20 µM; Cell viability (%) ([2]; 0.25 μM): 91.85%; Cell viability (%) ([2]; 0.74 μM): 90.53%; Cell viability (%) ([2]; 6.67 μM): 98.46%
8 | Aurothioglucose | – | – | – | – | – | – | – | – | – | – | – | – | CC50 [2]: > 20 µM
9 | Penitrem A | 91.01% and 104.49% and 97.75% | 111.24% and 101.12% and 94.38% | 117.98% and 128.09% and 111.24% | 6.40% and 7.08% and 9.44% | – | – | – | – | – | – | – | – | –
